Source: patent US20250122223A1, “HETEROCYCLIC COMPOUNDS AS UBIQUITIN SPECIFIC PROTEASE 7 INHIBITORS” (ALMAC DISCOVERY LIMITED, priority 2022, published 2025)
Read-outs that look alike come from different tables or passages of the source.

Target: USP7 (Homo sapiens (Human), UniProt Q93009)
Experiment: USP7 fluorescence polarisation (FP) assay with ubiquitin-Lys-TAMRA substrate
Format: biochemical
Details: biochemical inhibition
[1] = read-out: USP7 IC50 activity (Table 3a, classes)
[2] = unit not given in Table 3b (Table 1 and key of Table 3a use μM), read-out: USP7 IC50 activity (Table 3b)

USP7, sequence (Q93009 whole entry): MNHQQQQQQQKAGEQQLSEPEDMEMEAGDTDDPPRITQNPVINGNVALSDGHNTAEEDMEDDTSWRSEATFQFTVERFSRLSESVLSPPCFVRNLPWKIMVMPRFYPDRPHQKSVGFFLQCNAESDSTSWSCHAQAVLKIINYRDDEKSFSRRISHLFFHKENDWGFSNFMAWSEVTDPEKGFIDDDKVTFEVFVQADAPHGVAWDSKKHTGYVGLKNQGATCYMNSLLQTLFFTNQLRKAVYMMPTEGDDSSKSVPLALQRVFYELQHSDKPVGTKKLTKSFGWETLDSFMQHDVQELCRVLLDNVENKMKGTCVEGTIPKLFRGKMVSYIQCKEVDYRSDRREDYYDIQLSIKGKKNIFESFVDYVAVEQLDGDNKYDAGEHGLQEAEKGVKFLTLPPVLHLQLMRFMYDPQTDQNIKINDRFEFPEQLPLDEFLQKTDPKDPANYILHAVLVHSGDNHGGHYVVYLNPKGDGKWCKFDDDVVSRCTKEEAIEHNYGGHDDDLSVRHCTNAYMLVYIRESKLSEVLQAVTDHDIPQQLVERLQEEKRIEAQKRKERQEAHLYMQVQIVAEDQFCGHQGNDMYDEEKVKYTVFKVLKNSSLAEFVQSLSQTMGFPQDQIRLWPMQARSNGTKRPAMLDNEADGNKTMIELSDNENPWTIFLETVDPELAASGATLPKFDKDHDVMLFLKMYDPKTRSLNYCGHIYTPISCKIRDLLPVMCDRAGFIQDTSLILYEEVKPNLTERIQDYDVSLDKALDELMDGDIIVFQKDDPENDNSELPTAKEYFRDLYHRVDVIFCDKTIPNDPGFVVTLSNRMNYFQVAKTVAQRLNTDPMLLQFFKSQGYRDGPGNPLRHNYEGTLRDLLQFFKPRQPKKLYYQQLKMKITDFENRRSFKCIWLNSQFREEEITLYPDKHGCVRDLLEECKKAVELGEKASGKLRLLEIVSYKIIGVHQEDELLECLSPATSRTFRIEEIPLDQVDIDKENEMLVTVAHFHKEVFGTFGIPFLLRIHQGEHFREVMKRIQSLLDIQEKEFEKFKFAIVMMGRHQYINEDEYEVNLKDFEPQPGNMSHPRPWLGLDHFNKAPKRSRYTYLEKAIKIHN

IC50 [1] [µM]	IC50 [2] [µM]	SMILES
0.1 to 0.25	0.111	Cc1cc(-n2c(Cl)cc3c(=O)n(CC4(O)CCN(C(=O)c5ccc(C(F)F)cc5)CC4)cnc32)ccc1[C@H]1CO[C@H](C)CN1 [Example 92, 6-Chloro-3-((1-(4-(difluoromethyl)benzoyl)-4-hydroxypiperidin-4-yl)methyl)-7-(3-methyl-4-((3S,6R)-6-methylmorpholin-3-yl)phenyl)-3,7-dihydro-4H-pyrrolo[2,3-d]pyrimidin-4-one]
0.1 to 0.25	0.16	Cc1cc(-n2c(Cl)cc3c(=O)n(CC4(O)CCN(C(=O)c5ccc(C6CC6)cc5)CC4)cnc32)ccc1[C@H]1CO[C@H](C)CN1 [Example 93, 6-Chloro-3-((1-(4-cyclopropylbenzoyl)-4-hydroxypiperidin-4-yl)methyl)-7-(3-methyl-4-((3S,6R)-6-methylmorpholin-3-yl)phenyl)-3,7-dihydro-4H-pyrrolo[2,3-d]pyrimidin-4-one]
0.1 to 0.25	0.193	Cc1cc(-n2c(Cl)cc3c(=O)n(CC4(O)CCN(C(=O)c5ccc(C6(C)CC6)cc5)CC4)cnc32)ccc1[C@H]1CO[C@H](C)CN1 [Example 94, 6-Chloro-3-((4-hydroxy-1-(4-(1-methylcyclopropyl)benzoyl)piperidin-4-yl)methyl)-7-(3-methyl-4-((3S,6R)-6-methylmorpholin-3-yl)phenyl)-3,7-dihydro-4H-pyrrolo[2,3-d]pyrimidin-4-one]
0.1 to 0.25	0.132	CC[C@H]1CN[C@H](c2ccc(-n3c(Cl)cc4c(=O)n(CC5(O)CCN(C(=O)[C@@]6(C)C[C@@H]6C)CC5)cnc43)cc2)CO1 [Example 95, 6-Chloro-3-((1-((1 S,2S)-1,2-dimethylcyclopropane-1-carbonyl)-4-hydroxypiperidin-4-yl)methyl)-7-(4-((3R,6S)-6-ethylmorpholin-3-yl)phenyl)-3,7-dihydro-4H-pyrrolo[2,3-d]pyrimidin-4-one]
< 0.1	0.037	CC[C@H]1CN[C@H](c2ccc(-n3c(Cl)cc4c(=O)n(CC5(O)CCN(C(=O)[C@]6(C)C[C@H]6C)CC5)cnc43)cc2)CO1 [Example 96, 6-Chloro-3-((1-((1R,2R)-1,2-dimethylcyclopropane-1-carbonyl)-4-hydroxypiperidin-4-yl)methyl)-7-(4-((3R,6S)-6-ethylmorpholin-3-yl)phenyl)-3,7-dihydro-4H-pyrrolo[2,3-d]pyrimidin-4-one]
0.25 to 2	0.263	C[C@H]1CN[C@H](c2ccc(-n3c(Cl)cc4c(=O)n(CC5(O)CCN(C(=O)C(C6CC6)C6CC6)CC5)cnc43)cc2)CO1 [Example 99, 6-Chloro-3-((1-(2,2-dicyclopropylacetyl)-4-hydroxypiperidin-4-yl)methyl)-7-(4-((3R,6S)-6-methylmorpholin-3-yl)phenyl)-3,7-dihydro-4H-pyrrolo[2,3-d]pyrimidin-4-one]
< 0.1	0.079	CC1(C(=O)N2CCC(O)(Cn3cnc4c(cc(Cl)n4-c4ccc([C@@H]5CO[C@@H](C6CC6)CN5)cc4)c3=O)CC2)CC1 [Example 100, 6-Chloro-7-(4-((3R,6S)-6-cyclopropylmorpholin-3-yl)phenyl)-3-((4-hydroxy-1-(1-methylcyclopropane-1-carbonyl)piperidin-4-yl)methyl)-3,7-dihydro-4H-pyrrolo[2,3-d]pyrimidin-4-one]
< 0.1	0.057	C[C@H]1CN[C@H](c2ccc(-n3c(Cl)cc4c(=O)n(CC5(O)CCN(C(=O)C6(C)CC6)CC5)cnc43)cc2)CO1 [Example 101, 6-Chloro-3-((4-hydroxy-1-(1-methylcyclopropane-1-carbonyl)piperidin-4-yl)methyl)-7-(4-((3R,6S)-6-methylmorpholin-3-yl)phenyl)-3,7-dihydro-4H-pyrrolo[2,3-d]pyrimidin-4-one]
